Patent US20250360160A1, “NEW MEDICAL USE OF TAFOXIPARIN” (DILAFOR AB, priority 2022, published 2025)

Assay: anticoagulant activity
Conditions: definition of DF01

## tafoxiparin
  anticoagulant activity: essentially no anticoagulant activity
